Assay results: patent US4221705A, “Novel peptide type antibiotic and the process for the production thereof” (priority 1977, dated 1980)

Experiment: Acute Toxic characters (Mouse LD50)
Assay type: in vivo
Conditions: HCl salt; for Mouse LD50: female; for LD50: mouse, in vivo, male
[1] = ip, Intraperitoneal Administration
[2] = sc, Subcutaneous Administration

SMILES | Mouse LD50 (Intraperitoneal Administration) | Mouse LD50 (Intravenous Administration) | Mouse LD50 (Oral Administration) | Mouse LD50 (Subcutaneous Administration) | LD50 [1] | LD50 [2] | LD50 (Intravenous Administration) | LD50 (Oral Administration)
C[C@@H](O)[C@H](NC(=O)[C@@H](CCCN)NC(=O)[C@H](CC(O)CNC(=N)N)NC(=O)[C@@H](N)CCCNC(=N)N)C(=O)N[C@H](CCCN)C(=O)N[C@@H](CC(O)CNC(=N)N)C(=O)N[C@H](Cc1ccc(O)cc1)C(=O)O (single isomer, unassigned) [L-ARG--L-(ARG(OH)--D-ORN--L-THR--D-ORN--L-ARG(OH)--D-TYR] | 43.2 to 57.2 mg/kg | 24.1 to 34.8 mg/kg | 2400 to 3000 mg/kg | 104 to 125 mg/kg | 43.2 to 57.2 mg/kg | 86.8 to 104 mg/kg | 24.1 to 34.8 mg/kg | 2400 to 3000 mg/kg
C[C@@H](O)[C@H](NC(=O)[C@@H](CCCN)NC(=O)[C@H](CC(O)CNC(=N)N)NC(=O)[C@@H](N)CCCNC(=N)N)C(=O)N[C@H](CCCN)C(=O)N[C@@H](CCCCN)C(=O)N[C@H](Cc1ccc(O)cc1)C(=O)O (single isomer, unassigned) [L-ARG--L-ARG(OH)--D-ORN--L-THR--D-ORN--L-Lys--D-TYR] | above 300 mg/kg | 144 to 1728 mg/kg | above 6000 mg/kg | ≥ 320 mg/kg | > 300 mg/kg | ≥ 320 mg/kg | 120 to 144 mg/kg | > 6000 mg/kg
